Values after ≈ are worked out from the molar mass of the structure shown. Read-outs that look alike come from different tables or passages of the source.
Assays:
HRV14 = HRV14 HeLa EC50; assay type: cell-based, human rhinovirus; settings: for EC50: Human rhinovirus sp., HRV14, H1-HeLa cells, 96 h, 37° C.
Procedure: H1-HeLa cells, cultured in complete RPMI 1640 medium containing 10% heat-inactivated FBS and 1% Penicillin/Streptomycin, were seeded in 96 well plates at 5000 cells/well one day prior to compound dosing and infection. The antiviral activity of each compound was measured in triplicate. Compounds were added directly to the cell cultures in serial 3-fold dilutions using the HP300 digital dispenser (Hewlett Packard, Palo Alto, CA) immediately prior to infection. The plates were transferred to BSL-2 containment and 100 μL of 1/4000 dilution of HRV14 virus stock was added to each well containing cells and serially diluted compounds. Each plate included 6 wells of infected untreated cells and 6 wells of cells containing 5 μM Rupintrivir that served as 0% and 100% virus inhibition control, respectively. Following the infection, test plates were incubated for 96 h in a tissue culture incubator set to 37° C./5% CO2. Following incubation, the H1-HeLa cells were removed from incubation and allowed to equilibrate to 25° C. Cell viability was determined by removing 100 μL of culture medium and adding 100 μL of Cell-Titer Glo viability reagent. The mixtures were incubated on a shaker for 10 minutes at 25° C., and the luminescence signal was quantified on an Envision luminescence plate reader.

in vitro = assay type: cell-based; settings: human, read-out: CC50 GALHEPG2
Procedure: The compound of Formula I and compounds 1, 2 and 6 were tested in a high-throughput 384-well assay format for cytotoxicity in galactose-adapted HepG2 cells (human liver carcinoma cell line).
Cells were diluted in media (DMEM (11966), 10% FBS, 1% NEAA, 0.2% Galactose, 1% Pyruvate, 1% Glutamax, 1% PSG) to 16.6K cells/mL and plated at 90 uL/well into 384 well poly-D-lysine coated assay plates and placed in an incubator at 37° C. and 5% CO2. Compounds were serially diluted (1:3) in 100% DMSO in 384-well plates in quadruplicate. DMSO and 2 mM Puromycin were included as negative and positive controls respectively. 24 hours after cell plating, a 384 channel pipettor was used to transfer 0.4 uL from the compound plate to the assay plate. Assay plates were returned to the incubator. After 5 days, assay plates were washed with 80 uL/well of PBS before addition of 20 μL of Cell Titer Glo. Assay plates were read on the Envision plate reader. […] CC50 values were calculated in Accord (on-line tool) using a one-site dose-response model to generate sigmoidal curve fits.

PBMC cytotoxicity assay = assay type: cell-based; settings: human, cryopreserved PBMCs
Procedure: Compounds were tested in a high-throughput 384-well assay format for cytotoxicity in cryopreserved human PBMCs. Compounds were serially diluted (1:3) in 100% DMSO in 384-well plates in quadruplicate. An acoustic dispenser was used to transfer 310 nL of compound into assay plates. DMSO and 2 mM Puromycin were included as negative and positive controls respectively. Cells were diluted in media (RPMI+10% FBS+1% PSG+10 mM Hepes+1% Pyruvate+0.1% BMe) to 72K cells/mL and allowed to rest for 4 hours in an incubator at 37° C. and 5% CO2 before plating into prespotted assay plates at 70 uL/well. After 5 days, 25 μL of Cell Titer Glo was added to the assay plates. […] CC50 values were calculated in Accord (on-line tool) using a one-site dose-response model to generate sigmoidal curve fits.

PRPT cytotoxicity assay = assay type: cell-based; settings: human, primary renal proximal tubule epithelial cells (PRPTEC); 5-day incubation
Procedure: The PRPT cytotoxicity assays on the compound of Formula I and compounds 1, 2 and 6 were conducted using the following protocol.
Cryopreserved human primary renal proximal tubule epithelial cells (PRPTEC), were obtained from LifeLine Cell Technology (Frederick, MD, Cat #FC-0013) and isolated from the tissue of human kidney. The cells were cultured with RenaLife completed medium (LifeLine, Frederick, MD, Cat #LL-0025) in T75 flask for 3 to 4 days from cryopreserved vial, before the cells were seeded to assay plates after 90% confluence. PRPTEC cells were plated at a density of 5×10^3 cells per well in collagen coated 96-well plate with a final volume of […] per well. On next day, the compound was added to cell plates directly using HP D300 Dispenser (Hewlett-Packard, Palo Alto, CA) with program starting at 200 fold lower than the compound stock concentration, and 1:3 fold dilution in duplicates with constant amount of DMSO equal to 0.5%. After 5-day incubation, culture medium was removed, cell viability was measured by addition of […] per well of CellTiter Glo viability reagent (Promega, Madison, WI, Cat #G7573) and the luminescence signal was quantified on a Luminescence plate reader (Perkin-Elmer, Waltham, MA).

[1] = Thermodynamic solubility assay; assay type: physicochemical; settings: thermodynamic from solid, room temperature, four days
Procedure: Excess solid compound was used to saturate aqueous samples of the compounds. The tubes were placed on an agitator set at 1000 rpm and remained under constant agitation for four days. Following agitation, it was confirmed that excess solids were present in all tubes. The tubes were centrifuged at 10,000 rpm for 5 minutes to remove excess solids and the supernatant was transferred to a new vial. Concentration analysis was determined by UPLC and quantified against internal standards.

[2] = pH 7, aqueous buffer, phosphate buffered saline solution, read-out: pH 7 Solubility
[3] = simulated gastric fluid, 10 mM hydrochloric acid (pH 2.0), read-out: pH 2 Solubility

SMILES	EC50 (HRV14) [µM]	CC50 at 5 days (in vitro) [µM]	CC50 at 5 days (PBMC cytotoxicity assay) [µM]	CC50 at 5 days (PRPT cytotoxicity assay) [µM]	solubility thermodynamic at 4 days [1, 2] [µg/mL]	solubility thermodynamic at 4 days [1, 3] [µg/mL]	times more potent relative to compound 1, HRV14 HeLa (HRV14; EC50 ratio vs compound 1) [times]	times more potent compared to compound 2, HRV14 HeLa (HRV14; EC50 ratio vs compound 2)	times more potent relative to compound 3, HRV14 HeLa (HRV14; EC50 ratio vs compound 3)	times more potent relative to compound 5, HRV14 HeLa (HRV14; EC50 ratio vs compound 5)
CCOC(=O)[C@H](C)NP(=O)(OC[C@@]1(C#N)O[C@@H](c2ccc3c(N)ncnn23)[C@H](O)[C@@H]1O)Oc1ccccc1 (stereo partly drawn) [Compound 1, reference compound]	1	> 44.4	18.2							
CCC(CC)COC(=O)[C@H](C)NP(=O)(OC[C@@]1(C#N)O[C@@H](c2ccc3c(N)ncnn23)[C@H](O)[C@@H]1O)Oc1ccccc1 (stereo partly drawn) [Compound 2, reference compound]	0.171	> 44.4	4.65	23.8	18 (≈ 0.0299 mM)	3720 (≈ 6.17 mM)				
CCC(CC)COC(=O)[C@H](C)N[P@](=O)(OC[C@@]1(C#N)O[C@@H](c2ccc3c(N)ncnn23)[C@H](O)[C@@H]1O)Oc1ccccc1 [Compound 6, 2-ethylbutyl ((S)-(((2R,3S,4R,5S)-5-(4-aminopyrrolo[2,1-f][1,2,4]triazin-7-yl)-2-cyano-3,4-dihydroxytetrahydrofuran-2-yl)methoxy)(phenoxy)phosphoryl)alaninate]		> 88.9	4.79	42.3	16 (≈ 0.0266 mM)	3790 (≈ 6.29 mM)				
C[C@H](N[P@](=O)(OC[C@@]1(C#N)O[C@@H](c2ccc3c(N)ncnn23)[C@H](O)[C@@H]1O)Oc1ccccc1)C(=O)OC1CCCCC1 [Formula I, cyclohexyl ((S)-(((2R,3S,4R,5S)-5-(4-aminopyrrolo[2,1-f][1,2,4]triazin-7-yl)-2-cyano-3,4-dihydroxytetrahydrofuran-2-yl)methoxy)(phenoxy)phosphoryl)-L-alaninate]	0.078	> 88.9	> 31.6	> 84.4	131	4120	~12.8	about 2.2 times	about 23.2 times	about 44.0 times
